Test results as given in patent US6489327B1, “Tryptase inhibitors” (Max-Planck-Gesellschaft zur Fordrungder Wisenschaften, e.V., priority 1998, dated 2002).
Counter-ions that a name gives are not always drawn.

Molecular target: human tryptase
Assay: Inhibition of human tryptase: apparent dissociation constant Kiapp, chromogenic substrate tos-Gly-Pro-Arg-pNA
Type: biochemical
Details: apparent dissociation constant in presence of substrate; human tryptase from lung tissue, 50 μg of heparin/ml
From the text: The documented pathophysiological effects of mast cell tryptase are brought about directly by the enzymic activity of the protease. Accordingly, they are reduced or blocked by inhibitors which inhibit the enzymatic activity of the tryptase. The equilibrium dissociation constant Ki of the enzyme-inhibitor complex is a suitable measure of the affinity of a reversible inhibitor for the target protease. This Ki value can be determined by measuring the effect of the inhibitor on the tryptase-induced cleavage of a chromogenic peptide-p-nitroanilide substrate or a fluorogenic peptide-aminomethylcoumarin substrate.
The dissociation constants of the tryptase-inhibitor complexes are determined under equilibrium conditions in accordance with the general recommendations of Bieth (Bieth J G, Pathophysiological interpretation of kinetic constants of protease inhibitors, Bull. Europ. Physiopath. Resp. 16:183-195, 1980) and the methods of Sommerhoff et al. (Sommerhoff C P et al., A. Kazal-type inhibitor of human mast cell tryptase: Isolation from the medical leech Hirudo medicinalis, characterization, and sequence analysis, Biol. Chem. Hoppe-Seyler 375: 685-694, 1994).
Human tryptase is prepared in a pure state from lung tissue; the specific activity of the isolated protease, determined by means of titration, is normally 85% of the theoretical value. Constant quantities of tryptase are incubated with increasing quantities of the inhibitors in the presence of 50 μg of heparin/ml for stabilizing the protease. After the equilibrium has been established between the reaction partners, the remaining enzyme activity is determined after adding the peptide-p-nitroanilide substrate tos-Gly-Pro-Arg-pNA, the cleavage of which is monitored at 405 nm over a period of 3 min. Alternatively, the residual enzymic activity can also be determined using fluorogenic substrates. The apparent dissociation constants Kiapp (i.e. in the presence of substrate) are subsequently ascertained by nonlinear regression by fitting the enzyme rates to the general equation for reversible inhibitors (Morrison J F, Kinetics of the reversible inhibition of enzyme-catalysed reactions by tight-binding inhibitors, Biochim. Biophys. Acta 185, 269-286, 1969):
V1/V0=1−{Et+lt+Kiapp−[(Et+lt+Kiapp)^2−4Etlt]^½}/2Et
In this equation, V1 and V0 are the rates in the presence and absence of the inhibitor, respectively, and Et and lt are the concentrations of the tryptase and of the inhibitor.
The apparent dissociation constants which were determined for the compounds according to the invention are given in Table A below, in which the numbers of the compounds correspond to the numbers of the compounds in the examples.

Compound | Ki [nM]
NCc1cccc(C(=O)N2CCN(C(=O)c3cccc(C(=O)N4CCN(C(=O)c5cccc(CN)c5)CC4)n3)CC2)c1 [Compound 1, Pyridine-2,6-dicarbobis[4-(3-aminomethylbenzoyl)-1-piperazide]] | 3000
NCC1CCC(C(=O)NC2CCN(C(=O)c3cccc(C(=O)N4CCC(NC(=O)C5CCC(CN)CC5)CC4)n3)CC2)CC1 (stereo not drawn) [Compound 15, Pyridine-2,6-dicarbobis[4-(4-aminomethylcyclohexylcarbonylamino)-1-piperidide]] | 3000
NCC1CCC(C(=O)N2CCN(C(=O)Nc3ccc(Oc4ccc(NC(=O)N5CCN(C(=O)C6CCC(CN)CC6)CC5)cc4)cc3)CC2)CC1 (stereo not drawn) [Compound 17, Bis{4-[4-(4-aminomethyl)cyclohexanoylpiperazin-1-yl]-carbonyl}-4,4′-diaminodiphenyl ether dihydrochloride] | 22000
CC(C)(c1ccc(OCC(=O)NCC(=O)NCCCCN)cc1)c1ccc(OCC(=O)NCC(=O)NCCCCN)cc1 [Compound 34, 2,2-Bis-[4-(10-amino-3,6-diaza-2,5-dioxodecyloxy)-phenyl]propane dihydrochloride] | 2000
CC(C)(c1ccc(OC(=O)N2CCN(C(=O)NCc3ccc(CN)cc3)CC2)cc1)c1ccc(OC(=O)N2CCN(C(=O)NCc3ccc(CN)cc3)CC2)cc1 [Compound 36, 2,2-Bis-{4-[4-(4-aminomethylbenzylcarbamoyl)-1-piperazinylcarbonyloxy]phenyl}propane dihydrochloride] | 28

Continued by falling Ki, values first:

Ki [nM] | Compound
800 | NCC1CCC(C(=O)NC2CCN(C(=O)NC3CCC(CC4CCC(NC(=O)N5CCC(NC(=O)C6CCC(CN)CC6)CC5)CC4)CC3)CC2)CC1 (stereo not drawn) [Compound 23, Di{4-[4-(4-aminomethyl)cyclohexanoylamino]piperidin-1-ylcarbamoyl}cyclohexylmethane dihydrochloride]
200 | CC(C)(c1ccc(OCC(=O)NCc2ccc(NC(=N)N)cc2)cc1)c1ccc(OCC(=O)NCc2ccc(NC(=N)N)cc2)cc1 [Compound 31, 2,2-Bis-[4-(4-guanidinylbenzylamino)carbonylmethoxyphenyl]propane dihydroacetate]
100 | NCc1cccc(C(=O)N2CCN(C(=O)Nc3ccc(Oc4ccc(NC(=O)N5CCN(C(=O)c6cccc(CN)c6)CC5)cc4)cc3)CC2)c1 [Compound 21, Bis{4-[4-(3-aminomethyl)benzoylpiperazin-1-yl]-carbonyl}-4,4′-diaminodiphenyl ether dihydrochloride]
30 | NCc1cccc(C(=O)NC2CCN(C(=O)c3cccc(C(=O)N4CCC(NC(=O)c5cccc(CN)c5)CC4)n3)CC2)c1 [Compound 11, Pyridine-2,6-dicarbobis[4-(3-aminomethylbenzoylamino)-1-piperidide]]
